According to US20070142321A1, “METHOD FOR PREVENTING GROWTH OF BACTERIA ON CONTACT LENSES WITH EYE DROPS” (priority 2005, published 2007):

Legend:
[1] = system: microbes; experiment: Amount of Alexidine required to disinfect the solutions; format: cell-based; conditions: in Formulae 1-4
Procedure: (§1) For the purposes of this patent application a disinfecting amount is an amount of an antimicrobial agent that passes the Stand Alone Disinfecting Efficacy Test by the Food and Drug Administration (510k) of the United States of America in a minimum of three out of four test samples in a test solution that is diluted with 0.9 wt. % saline solution in a 1:1 ratio of test solution to saline solution.
(§2) The FDA (510 (k)) Guidance Document for contact lens products defines procedures that measure the extend of viability loss of representative microorganisms at established time intervals to determine the extend of viability loss. FDA (510 (k)) Guidance Documents recommended test organisms for both disinfecting stand-alone and preservative efficacy testing are composed of three bacteria (Pseudomonas aeruginosa ATCC 9027, Stapylococcus aureus ATCC 6538, and Serratia marcescens ATCC 13880) and two fungi (Candida albicans ATCC 10231, and Fusarium solani ATCC 36031). The performance requirement biocidal stand alone testing calls for 3 log reduction for bacterial cells and 1 log reduction for each fungi. At day 28, after the rechallenge on day 14, the performance requirement for preservative efficacy testing calls for reduction of 3.0 logs per bacteria and ±0.5 for fungi.
(§3) With Alexidine, it has been discovered that approximately 1 ppm is required to disinfect each of the solutions above. […]

[2] = system: microbes; experiment: Disinfection of a contact lens removed from the eye and treated by a disinfecting/cleaning regimen; format: cell-based; conditions: Alexidine at 4.5 ppm; lens removed from the eye and treated with solution
Procedure: as §1, §2, §3

In the case of `CCCCC(CC)CNC(=N)NC(=N)NCCCCCCNC(=N)NC(=N)NCC(CC)CCCC` (centres unmarked) [Alexidine, 1,1′-hexamethylenebis[5-(2-ethylhexyl)biguanide]], the “amount of Alexidine required to disinfect each of the solutions” value [1] is reported as “approximately 1 ppm” and the “antimicrobial activity to disinfect a contact lens” value [2] is reported as “sufficient antimicrobial activity to disinfect a contact lens”.
